# Legend:
# [1] = Concentration in blood plasma of rabbits during vaginal administration (vaginal suppositories 0.1 g); type: in vivo
# Experimental: Concentration in blood plasma of the experimental animals during vaginal administration of the inventive substance.
# The results of measuring the concentration of the substance in blood plasma of rabbits during vaginal administration in the form of “vaginal suppositories 0.1 g” are shown on the provided diagram in the form of averaged pharmacokinetic curves (see FIG. 1). After inserting the suppository, the substance began to enter the general blood circulation after approximately 15 minutes; after 1 hour the concentration of the substance in the blood reached its maximum (approximately 120 μg/ml); then it was gradually excreted from the organism, and 24 hours after its administration the detected presence of the substance in blood plasma was minimal (approximately 20 μg/ml). The dispersion of individual values was moderate: coefficient of variation CV amounted to 13-22%.
# endogenous interferon [2] = assay: Interferon inducing activity in vivo during intragastric administration to mice; conditions: 1000 μg/mouse, background 7-10 units
# endogenous interferon [3] = assay: Interferon inducing activity in vivo during oral administration to mice; conditions: 5.0 mg/mouse, background 7-10 units
structure (smiles),measurement,setting,value
"COC(=O)c1cccc(Nc2cc(=O)[nH]c(=O)[nH]2)c1 [The inventive substance, monomer, 6-(3-methoxycarbonylphenyl) amino-2,4 (1H, 3H)-pyrimidinedione]",Time at which concentration in the blood reached its maximum,[1],1 h
same,Time until the substance began to enter the general blood circulation,[1],approximately 15 minutes
same,Maximum concentration of the substance in the blood,[1]; after 1 hour,approximately 120 μg/ml
same,concentration at 24 h,"[1]; rabbit, plasma, other: vaginal, 24 hours, read-out: Concentration of the substance in blood plasma 24 hours after administration",~20000 ng/mL
same,"Interferon inducing activity, 2 hours",endogenous interferon [2]; 2 hours,30 IU
same,"Interferon inducing activity, 4 hours",endogenous interferon [2]; 4 hours,10 IU
same,"Interferon inducing activity, 6 hours",endogenous interferon [2]; 6 hours,160 IU
same,"Interferon inducing activity, 8 hours",endogenous interferon [2]; 8 hours,25-30 IU
same,"Interferon inducing activity, 24 hours",endogenous interferon [2]; 24 hours,30 IU
same,"Interferon inducing activity, 2 hours",endogenous interferon [3]; 2 hours,18 IU
same,"Interferon inducing activity, 4 hours",endogenous interferon [3]; 4 hours,120 IU
same,"Interferon inducing activity, 6 hours",endogenous interferon [3]; 6 hours,20 IU
same,"Interferon inducing activity, 8 hours",endogenous interferon [3]; 8 hours,40 IU
same,"Interferon inducing activity, 24 hours",endogenous interferon [3]; 24 hours,100 IU

# Source: patent US10029990B2, “Agent for inducing endogenous interferon” (priority 2010, dated 2018)
